Tested on: 328373-195-R-J1-PDC complex spheroids, viability % test/control
Assay: Anticancer human tumor 328373-195-R-J1-PDC patient-derived head and neck squamous carcinoma cell line growth inhibition [CLK]
Settings: for IC50: curve of first compound; for viability, T/C: stronger effect = lower value
Method in brief: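 Patient-derived tumor cells grown as complex spheroids with HUVEC endothelial cells and mesenchymal stem cells, treated with drug combinations. Concentrations descend in half-log steps from near clinical Cmax, or from 10 microM if Cmax unknown.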

[1] = second compound 0.0316 µM, first compound 0.0316 µM
[2] = second compound 0.0316 µM, first compound 0.1 µM
[3] = second compound 0.0316 µM, first compound 0.316 µM
[4] = second compound 0.0316 µM, first compound 1 µM
[5] = second compound 0.0316 µM, first compound 3.16 µM
[6] = second compound 0.0316 µM, first compound 10 µM
[7] = second compound 0.1 µM, first compound 0.0316 µM
[8] = second compound 0.1 µM, first compound 0.1 µM
[9] = second compound 0.1 µM, first compound 0.316 µM
[10] = second compound 0.1 µM, first compound 1 µM
[11] = second compound 0.1 µM, first compound 3.16 µM
[12] = second compound 0.1 µM, first compound 10 µM
[13] = second compound 0.316 µM, first compound 0.0316 µM
[14] = second compound 0.316 µM, first compound 0.1 µM
[15] = second compound 0.316 µM, first compound 0.316 µM
[16] = second compound 0.316 µM, first compound 1 µM
[17] = second compound 0.316 µM, first compound 3.16 µM
[18] = second compound 0.316 µM, first compound 10 µM
[19] = second compound 1 µM, first compound 0.0316 µM
[20] = second compound 1 µM, first compound 0.1 µM
[21] = second compound 1 µM, first compound 0.316 µM
[22] = second compound 1 µM, first compound 1 µM
[23] = second compound 1 µM, first compound 3.16 µM
[24] = second compound 1 µM, first compound 10 µM
[25] = second compound 3.16 µM, first compound 0.0316 µM
[26] = second compound 3.16 µM, first compound 0.1 µM
[27] = second compound 3.16 µM, first compound 0.316 µM
[28] = second compound 3.16 µM, first compound 1 µM
[29] = second compound 3.16 µM, first compound 3.16 µM
[30] = second compound 3.16 µM, first compound 10 µM
[31] = second compound 10 µM, first compound 0.0316 µM
[32] = second compound 10 µM, first compound 0.1 µM
[33] = second compound 10 µM, first compound 0.316 µM
[34] = second compound 10 µM, first compound 1 µM
[35] = second compound 10 µM, first compound 3.16 µM
[36] = second compound 10 µM, first compound 10 µM
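Further: spheroids exposed to the agents for 7 days.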

CC(=O)O[C@H]1C(=O)[C@@]2(C)[C@H]([C@H](OC(=O)c3ccccc3)[C@]3(O)C[C@H](OC(=O)[C@H](O)[C@@H](NC(=O)c4ccccc4)c4ccccc4)C(C)=C1C3(C)C)[C@]1(OC(C)=O)CO[C@@H]1C[C@@H]2O + CN1CCN(c2cc(C(=O)Nc3cc4cc(-c5cnn(C)c5)ccc4cn3)ccn2)CC1
IC50 (second compound 0.0316 µM): < 31.6 nM
IC50 (second compound 0.1 µM): < 31.6 nM
IC50 (second compound 0.316 µM): < 31.6 nM
IC50 (second compound 1 µM): < 31.6 nM
IC50 (second compound 3.16 µM): < 31.6 nM
IC50 (second compound 10 µM): < 31.6 nM
viability, T/C [1]: 7.74%
viability, T/C [2]: 4.32%
viability, T/C [3]: 7.3%
viability, T/C [4]: 5.75%
viability, T/C [5]: 9.83%
viability, T/C [6]: 12.9%
viability, T/C [7]: 2.72%
viability, T/C [8]: 2.97%
viability, T/C [9]: 8.34%
viability, T/C [10]: 5.1%
viability, T/C [11]: 7.93%
viability, T/C [12]: 9.97%
viability, T/C [13]: 3.35%
viability, T/C [14]: 5.31%
viability, T/C [15]: 5.81%
viability, T/C [16]: 5.22%
viability, T/C [17]: 5.91%
viability, T/C [18]: 10.6%
viability, T/C [19]: 0.18%
viability, T/C [20]: 0.12%
viability, T/C [21]: 0.12%
viability, T/C [22]: 0.07%
viability, T/C [23]: 0.08%
viability, T/C [24]: 0.07%
viability, T/C [25]: 2.71%
viability, T/C [26]: 0.11%
viability, T/C [27]: 0.12%
viability, T/C [28]: 0.08%
viability, T/C [29]: 0.76%
viability, T/C [30]: 2.99%
viability, T/C [31]: 1.85%
viability, T/C [32]: 1.39%
viability, T/C [33]: 0.15%
viability, T/C [34]: 0.17%
viability, T/C [35]: 2.04%
viability, T/C [36]: 2.05%

CCc1c2c(nc3ccc(O)cc13)-c1cc3c(c(=O)n1C2)COC(=O)[C@]3(O)CC + CN1CCN(c2cc(C(=O)Nc3cc4cc(-c5cnn(C)c5)ccc4cn3)ccn2)CC1
IC50 (second compound 0.0316 µM): < 3.16 nM
IC50 (second compound 0.1 µM): < 3.16 nM
IC50 (second compound 0.316 µM): < 3.16 nM
IC50 (second compound 1 µM): < 3.16 nM
IC50 (second compound 3.16 µM): < 3.16 nM
IC50 (second compound 10 µM): < 3.16 nM
viability, T/C (second compound 0.0316 µM, first compound 0.00316 µM): 12.2%
viability, T/C (second compound 0.0316 µM, first compound 0.01 µM): 1.41%
viability, T/C [1]: 2.09%
viability, T/C [2]: 0.42%
viability, T/C [3]: 0.89%
viability, T/C [4]: 2.49%
viability, T/C (second compound 0.1 µM, first compound 0.00316 µM): 10.9%
viability, T/C (second compound 0.1 µM, first compound 0.01 µM): 2.12%
viability, T/C [7]: 2.78%
viability, T/C [8]: 0.32%
viability, T/C [9]: 1.24%
viability, T/C [10]: 0.18%
viability, T/C (second compound 0.316 µM, first compound 0.00316 µM): 7.1%
viability, T/C (second compound 0.316 µM, first compound 0.01 µM): 3.19%
viability, T/C [13]: 1.44%
viability, T/C [14]: 0.21%
viability, T/C [15]: 0.41%
viability, T/C [16]: 0.05%
viability, T/C (second compound 1 µM, first compound 0.00316 µM): 0.07%
viability, T/C (second compound 1 µM, first compound 0.01 µM): 1.93%
viability, T/C [19]: 2.72%
viability, T/C [20]: 0.03%
viability, T/C [21]: 0.04%
viability, T/C [22]: 0.78%
viability, T/C (second compound 3.16 µM, first compound 0.00316 µM): 0.96%
viability, T/C (second compound 3.16 µM, first compound 0.01 µM): 0.54%
viability, T/C [25]: 0.11%
viability, T/C [26]: 2.41%
viability, T/C [27]: 2.52%
viability, T/C [28]: 0.11%
viability, T/C (second compound 10 µM, first compound 0.00316 µM): 0.51%
viability, T/C (second compound 10 µM, first compound 0.01 µM): 0.1%
viability, T/C [31]: 1.56%
viability, T/C [32]: 0.07%
viability, T/C [33]: 1.03%
viability, T/C [34]: 2.56%

COc1ccc([C@@H](O)c2cc(-c3ncnc4cc(N5CCOCC5)ccc34)c(F)cc2Cl)nn1 + CN1CCN(c2cc(C(=O)Nc3cc4cc(-c5cnn(C)c5)ccc4cn3)ccn2)CC1
IC50 (second compound 0.0316 µM): > 10000 nM
IC50 (second compound 0.1 µM): 8160 nM
IC50 (second compound 0.316 µM): < 31.6 nM
IC50 (second compound 1 µM): < 31.6 nM
IC50 (second compound 3.16 µM): < 31.6 nM
IC50 (second compound 10 µM): < 31.6 nM
viability, T/C [1]: 91.6%
viability, T/C [2]: 103%
viability, T/C [3]: 91.1%
viability, T/C [4]: 96.7%
viability, T/C [5]: 71.7%
viability, T/C [6]: 51.5%
viability, T/C [7]: 73.2%
viability, T/C [8]: 87.5%
viability, T/C [9]: 73%
viability, T/C [10]: 96.7%
viability, T/C [11]: 71.5%
viability, T/C [12]: 45.4%
viability, T/C [13]: 21%
viability, T/C [14]: 25.2%
viability, T/C [15]: 20.6%
viability, T/C [16]: 17.7%
viability, T/C [17]: 21.5%
viability, T/C [18]: 22.5%
viability, T/C [19]: 0.11%
viability, T/C [20]: 2.93%
viability, T/C [21]: 2.16%
viability, T/C [22]: 2.41%
viability, T/C [23]: 1.4%
viability, T/C [24]: 2.54%
viability, T/C [25]: 2.66%
viability, T/C [26]: 0.1%
viability, T/C [27]: 0.14%
viability, T/C [28]: 0.11%
viability, T/C [29]: 3.57%
viability, T/C [30]: 2.6%
viability, T/C [31]: 1.28%
viability, T/C [32]: 1.19%
viability, T/C [33]: 0.19%
viability, T/C [34]: 0.13%
viability, T/C [35]: 0.17%
viability, T/C [36]: 1.61%

COc1cccc2c1C(=O)c1c(O)c3c(c(O)c1C2=O)CC(O)(C(=O)CO)CC3OC1CC(N)C(O)C(C)O1 (stereo not given) + CN1CCN(c2cc(C(=O)Nc3cc4cc(-c5cnn(C)c5)ccc4cn3)ccn2)CC1
IC50 (second compound 0.0316 µM): < 31.6 nM
IC50 (second compound 0.1 µM): < 31.6 nM
IC50 (second compound 0.316 µM): < 31.6 nM
IC50 (second compound 1 µM): < 31.6 nM
IC50 (second compound 3.16 µM): < 31.6 nM
IC50 (second compound 10 µM): < 31.6 nM
viability, T/C [1]: 13.4%
viability, T/C [2]: 8.66%
viability, T/C [3]: 2.1%
viability, T/C [4]: 0.22%
viability, T/C [5]: 2.55%
viability, T/C [6]: 1.06%
viability, T/C [7]: 14.7%
viability, T/C [8]: 5.57%
viability, T/C [9]: 0.44%
viability, T/C [10]: 0.19%
viability, T/C [11]: 0.12%
viability, T/C [12]: 1.87%
viability, T/C [13]: 13.2%
viability, T/C [14]: 2.4%
viability, T/C [15]: 3.38%
viability, T/C [16]: 1.11%
viability, T/C [17]: 0.1%
viability, T/C [18]: 2%
viability, T/C [19]: 1.05%
viability, T/C [20]: 2.51%
viability, T/C [21]: 4.63%
viability, T/C [22]: 0.09%
viability, T/C [23]: 1.51%
viability, T/C [24]: 0.08%
viability, T/C [25]: 0.07%
viability, T/C [26]: 4.11%
viability, T/C [27]: 0.93%
viability, T/C [28]: 0.07%
viability, T/C [29]: 1.76%
viability, T/C [30]: 0.11%
viability, T/C [31]: 0.1%
viability, T/C [32]: 0.75%
viability, T/C [33]: 0.41%
viability, T/C [34]: 0.11%
viability, T/C [35]: 2.76%
viability, T/C [36]: 0.61%

O=c1[nH]cc(F)c(=O)[nH]1 + CN1CCN(c2cc(C(=O)Nc3cc4cc(-c5cnn(C)c5)ccc4cn3)ccn2)CC1
IC50 (second compound 0.0316 µM): 58.4 nM
IC50 (second compound 0.1 µM): 62.1 nM
IC50 (second compound 0.316 µM): < 31.6 nM
IC50 (second compound 1 µM): < 31.6 nM
IC50 (second compound 3.16 µM): < 31.6 nM
IC50 (second compound 10 µM): < 31.6 nM
viability, T/C [1]: 76.7%
viability, T/C [2]: 26.6%
viability, T/C [3]: 13.9%
viability, T/C [4]: 9.49%
viability, T/C [5]: 10.6%
viability, T/C [6]: 13.6%
viability, T/C [7]: 74.7%
viability, T/C [8]: 32.6%
viability, T/C [9]: 12.5%
viability, T/C [10]: 10.6%
viability, T/C [11]: 10.2%
viability, T/C [12]: 16.8%
viability, T/C [13]: 25.9%
viability, T/C [14]: 14.3%
viability, T/C [15]: 14.6%
viability, T/C [16]: 7.98%
viability, T/C [17]: 6.74%
viability, T/C [18]: 5.92%
viability, T/C [19]: 0.13%
viability, T/C [20]: 4.38%
viability, T/C [21]: 0.56%
viability, T/C [22]: 0.05%
viability, T/C [23]: 2.73%
viability, T/C [24]: 0.78%
viability, T/C [25]: 0.03%
viability, T/C [26]: 3.69%
viability, T/C [27]: 4.78%
viability, T/C [28]: 0.03%
viability, T/C [29]: 0.16%
viability, T/C [30]: 0.08%
viability, T/C [31]: 0.03%
viability, T/C [32]: 0.64%
viability, T/C [33]: 2.65%
viability, T/C [34]: 0.06%
viability, T/C [35]: 4.08%
viability, T/C [36]: 1.3%

— PubChem BioAssay AID2060620 (Molecular Pharmacology Branch, DTP, NCI, 2025)
